Assay results reported in US10258639B2, “Methods for treating insulin resistance and for sensitizing patients to GLP1 agonist therapy” (Research Development Foundation, priority 2014, dated 2019).

System: INS1 cells
Assay: RNAseq of INS1 cells grown in chronic high glucose compared to controls and stimulated with FSK (Table 2)
Type: cell-based, rat
Conditions: Low glucose, FSK/control
Experimental: INS-1 insulinoma cells were cultured in RPMI (corning cellgro) containing 10% fetal bovine serum (Gemini Bio Products), 100 μg/mL penicillin-streptomycin and 1 mM sodium pyruvate (corning cellgro). MIN6 cells were grown in DMEM (corning cellgro) with 10% FBS, 100 μg/mL penicillin-streptomycin and 70 uM beta-mercaptoethanol. For chronic glucose experiments, cells were maintained under low (2.8 mM) or high (20 mM) glucose for 3 days. Exendin-4 (10 nM), Forskolin (10 μM), KCl (40 mM), DMOG (1 mM) and rapamycin (50 nM) were added to cells as indicated. Cellular cAMP levels were measured using an ELISA kit (Cayman Chemical Company) according to manufacturer's instructions. Total RNAs from cells or primary islets were extracted using Trizol and cDNA was generated using the Transcriptor First Strand cDNA Synthesis kit (Roche Applied Science). cDNAs were quantified on a lightcycler 480 instrument (Roche Applied Science). Gene expression data were presented relative to the expression of housekeeping gene L32 (rat samples) and 18S (mouse and human islets). RNA-Seq libraries were prepared using the mRNA isolation protocol and the NEBNext-Ultra kits from New England Biolabs following the manufacturer's protocols. Libraries were quantitated by Qubit (Invitrogen), and run on a MiSeq instrument with paired-end 75 bp reads using v3 chemistry (Illumina) Data were analyzed by tophat2 and cuffdiff against the mouse mm10 genome build. The GEO accession number for RNAseq studies reported in the paper is GSE60158.

C=C[C@@]1(C)CC(=O)[C@]2(O)[C@@]3(C)[C@@H](O)CCC(C)(C)[C@@H]3[C@H](O)[C@H](OC(C)=O)[C@@]2(C)O1 [FSK, Forskolin]
2.0: Acpt Fold | Acsl4 Fold | Agt Fold | Ahi1 Fold | Bhlha15 Fold | Btg3 Fold | Bysl Fold | Canx Fold | Ccni Fold | Chd1 Fold | Chrne Fold | Ctf1 Fold | Cxcl2 Fold | Cyth3 Fold | Dkc1 Fold | Epha3 Fold | Epor Fold | Fam49a Fold | Ficd Fold | Fmc1 Fold | Fn1 Fold | Gabre Fold | Gars Fold | Ggt5 Fold | Gnl3 Fold | Gnmt Fold | Gzmm Fold | Hmcn1 Fold | Hmga2 Fold | Hnrnpa1 Fold | Hnrpdl Fold | Hs3st2 Fold | Hspa4 Fold | Hspd1 Fold | Icam2 Fold | Il13ra1 Fold | Il28ra Fold | Kcnb1 Fold | Kcnj13 Fold | Kdm1b Fold | Kif9 Fold | LOC683722 Fold | LOC686295 Fold | LOC689959 Fold | Lrfn5 Fold | Map3k4 Fold | Mef2d Fold | Megf10 Fold | Msn Fold | Myof Fold | Nckap1l Fold | Nkx2-2 Fold | Nolc1 Fold | Notch4 Fold | Ormdl3 Fold | Otop3 Fold | Pabpc6 Fold | Pde3b Fold | Pde4dip Fold | Pdrg1 Fold | Plcb2 Fold | RGD1309079 Fold | RGD1311084 Fold | Rab3gap2 Fold | Rab11fip1 Fold | Rap2a Fold | Rho Fold | Rpl7a Fold | Rpl17 Fold | Rrs1 Fold | Sgce Fold | Smad1 Fold | Smad3 Fold | Snapc1 Fold | Sncaip Fold | Spon2 Fold | Srp54 Fold | Stard8 Fold | Syp Fold | T2 Fold | Taf1a Fold | Tex38 Fold | Tmem114 Fold | Tomm20 Fold | Tpp2 Fold | Twistnb Fold | Usp9x Fold | Vps37b Fold | Zfp830 Fold | Zfp385d Fold
